Assay results from paper PMC10740156, “Discovery of potential WEE1 inhibitors via hybrid virtual screening” (Frontiers in Pharmacology, 2023).
Where a name gives a salt, the structure may show the parent alone. Values belong to the compound of their own block, whether it stands above or below them.

Experiments:
[1] = molecular target: WEE1 kinase (Homo sapiens, UniProt P30291); assay: Inhibitory activity assay (ADP-Glo kinase assay); format: biochemical; details: for IC50: WEE1 kinase; for Inhibition Rate / inhibition at 25 µM: compound 25 μM, relative inhibition rate, Staurosporine (10 µM) as positive control
Procedure: The tested compounds were dissolved in DMSO to make a 10 mM stock solution, which was further diluted to a drug solution of 25 µM. […] Transfer 20 nL compound to 384 assay plate by Echo 655. […] 8 μL of kinase detection reagent was added to the well, and incubated for 40 min at 25°C. Read the RLU (relative light-emitting unit) signal using the BMG multifunction microplate reader, and the signal intensity is used to characterize the degree of kinase activity. […] Staurosporine is a prototypical ATP-competitive kinase inhibitor in that it binds to many kinases with high affinity. The inhibition rates were calculated using the equations (X: log of inhibitor concentration; Y: % Inhibition). Assays were performed on three independent experiments. Y=Bottom+Top – Bottom/(1+10^ (LogIC50 – X×hillslope))

[2] = system: HuH-7 cells; assay: Anti-proliferation activity assay (CCK-8); format: cell-based, human
Procedure: (§1) Anti-proliferation activity assay was detected by Cell Counting Kit-8 detection kit (CCK-8, #K1018) provided by Apexbio (United States). In brief, cells were seeded in 96-wells plates at a density of 3 × 10^3/well for 24 h. Then, cells were treated with indicated concentrations of compounds for 72 h. Supernatant was totally removed, and 100 μL of CCK-8 solution was added to each well and cultured for another 1 h at 37°C. The absorbance of plates was measured by SpectraMax M2 (Molecular Devices, San Jose, CA, United States) at 450 nm. […] Assays were performed on three independent experiments.

[3] = system: Bel-7402 cells; assay: Anti-proliferation activity assay (CCK-8); format: cell-based; details: Homo sapiens, 72 h
Procedure: as §1

[4] = system: A549 cells; assay: Anti-proliferation activity assay (CCK-8); format: cell-based; details: Homo sapiens, 72 h
Procedure: as §1

[5] = system: PC9 cells; assay: Cell apoptosis analysis (Annexin V/PI flow cytometry); format: cell-based, human; details: 500 nM, 72 h; for percentage of apoptotic cells (early apoptosis + late apoptosis): blank control 13.24%
Procedure: (§2) For apoptosis detection, Cells were performed with Pharmingen FITC Annexin V Detection KitⅠ(BD Bioscience, Oxford, UK). Briefly, Cells were harvested and washed once with 1×binding buffer and then incubated with Annexin V and Propidium Iodide (PI) for 15 min in the dark at 37°C.
(§3) All samples were acquired by flow cytometry (FACS CantoⅡ, BD Bioscience) and analysed with Flowjo software version 10.4.

[6] = system: A549 cells; assay: as above; format: cell-based, human; details: 2 μM, 72 h; for percentage of apoptotic cells (early apoptosis + late apoptosis): blank control 9.86%
Procedure: as §2, §3

[7] = system: PC9 cells; assay: Cell cycle analysis (PI staining flow cytometry); format: cell-based, human; details: 500 nM, 24 h, compared to blank group
Procedure: (§4) For cell cycle detection, Cells were harvested and gently washed with PBS, and fixed with 70% cold ethanol −20°C overnight. After centrifugation, Cells were retained for precipitation and incubated with PI/RNase Staining Buffer (BD Bioscience, Oxford, United Kingdom) for 15 min in the dark at 37°C.
as §3

[8] = system: A549 cells; assay: Cell cycle analysis (PI staining flow cytometry); format: cell-based, human; details: 2 μM, 24 h
Procedure: as §4, §3

[9] = system: PC9 cells; assay: Anti-proliferation activity assay (CCK-8); format: cell-based; details: Homo sapiens, PC-9, 72 h
Procedure: as §1

Chain of WEE1 kinase (P30291 whole entry): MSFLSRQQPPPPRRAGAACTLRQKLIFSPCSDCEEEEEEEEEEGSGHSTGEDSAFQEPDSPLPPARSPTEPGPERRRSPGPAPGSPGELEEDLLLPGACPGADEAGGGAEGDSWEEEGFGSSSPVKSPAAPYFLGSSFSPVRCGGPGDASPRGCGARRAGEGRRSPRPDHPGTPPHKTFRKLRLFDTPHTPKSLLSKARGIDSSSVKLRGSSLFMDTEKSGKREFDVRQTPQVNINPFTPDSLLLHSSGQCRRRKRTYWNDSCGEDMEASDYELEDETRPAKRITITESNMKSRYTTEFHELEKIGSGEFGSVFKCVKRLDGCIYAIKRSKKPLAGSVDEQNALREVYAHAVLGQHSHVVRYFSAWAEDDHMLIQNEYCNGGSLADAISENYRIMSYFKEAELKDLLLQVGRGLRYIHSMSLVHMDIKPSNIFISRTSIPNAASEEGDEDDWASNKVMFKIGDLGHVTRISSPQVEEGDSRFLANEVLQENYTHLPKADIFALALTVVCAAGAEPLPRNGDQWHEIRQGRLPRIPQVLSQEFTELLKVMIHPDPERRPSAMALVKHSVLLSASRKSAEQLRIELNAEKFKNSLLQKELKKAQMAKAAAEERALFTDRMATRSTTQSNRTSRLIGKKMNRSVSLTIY

Compound: C[C@@H](Oc1ccc2[nH]nc(/C=C/c3cnn(CCO)c3)c2c1)c1c(Cl)cncc1Cl [Compound 9, LY2874455]
inhibition at 25 µM [1]: 58.2 ± 4.03%

Compound: COc1cc(-c2cc(-c3ccc(N4CCNCC4)cc3)cnc2C)cc(OC)c1OC [Compound 10, LDN-214117]
inhibition at 25 µM [1]: 32.77 ± 0.22%

Compound: C=CCn1c(=O)c2cnc(Nc3ccc(N4CCN(C)CC4)cc3)nc2n1-c1cccc(C(C)(C)O)n1 [AZD1775, Adavosertib, reference compound]
Q1 (flow cytometry quadrant) [5]: 0.015 | Q2% (late apoptosis rate) [5]: 5.20% | Q3% (early apoptosis rate) [5]: 22.0% | Q4 (flow cytometry quadrant) [5]: 72.8 | percentage of apoptotic cells (early apoptosis + late apoptosis) [5]: 27.20% | Q2% (late apoptosis rate) [6]: 5.52% | Q3% (early apoptosis rate) [6]: 11.1% | Q4 (flow cytometry quadrant) [6]: 83.3 | percentage of apoptotic cells (early apoptosis + late apoptosis) [6]: 16.62% | cell cycle distribution [8]: no significant change

Compound: CNC(=O)c1nn(C)c2c1C(C)(C)Cc1cnc(Nc3ccc(N4CCN(C)CC4)cc3)nc1-2 [Compound 5, Milciclib]
IC50 ([2]; Homo sapiens, Huh-7, 72 h): 80000 nM | IC50 [9]: 8880 nM | IC50 [1]: 3.77 nM | Inhibition Rate [1]: 137.84 ± 1.08%

Compound: CCN1CCN(C(=O)Cc2ccc(Nc3ncc(F)c(Nc4ccc(C(=O)Nc5ccccc5Cl)cc4)n3)cc2)CC1 [Compound 8, TCS7010]
IC50 [1]: 797 nM | Inhibition Rate [1]: 95.45 ± 2.24% | inhibition at 25 µM [1]: ~100%

The next lines start with results.

IC50 [1]: 988 nM | Inhibition Rate [1]: 127.17 ± 1.08%
Compound: CNS(=O)(=O)c1ccccc1Nc1nc(Nc2ccc(N3CCN(C)CC3)cc2OC)ncc1Cl [Compound 3, ALK inhibitor 2]

IC50 ([2]; 72 h): 875 nM | IC50 ([2]; Homo sapiens, Huh-7, 72 h): 880 nM | IC50 [3]: 147 nM | IC50 [4]: 5170 nM | IC50 [1]: 1.07 nM | Inhibition Rate [1]: 126.59 ± 1.66%
Compound: CNC(=O)c1ccccc1Nc1nc(Nc2ccc(N3CCN(CCCN)CC3)cc2)ncc1Cl [Compound 4, GSK3182571]
Q1 (flow cytometry quadrant) [5]: 0.014 | Q2% (late apoptosis rate) [5]: 4.55% | Q3% (early apoptosis rate) [5]: 80.2% | Q4 (flow cytometry quadrant) [5]: 15.2 | percentage of apoptotic cells (early apoptosis + late apoptosis) [5]: 84.75% | Q2% (late apoptosis rate) [6]: 8.55% | Q3% (early apoptosis rate) [6]: 9.18% | Q4 (flow cytometry quadrant) [6]: 82.2 | percentage of apoptotic cells (early apoptosis + late apoptosis) [6]: 17.73% | proportion of cells in the G1 phase [7]: significantly increased | proportion of cells in the G2 phase [7]: did not change significantly | cell cycle distribution [8]: no significant change

inhibition at 25 µM [1]: 24.8 ± 2.33%
Compound: CN1CCCN(C(=O)c2cccc(-c3ccc(/C=C4/C(=O)Nc5ccc(Cl)cc54)o3)c2)CC1 [Compound 6, CX-6258 hydrochloride]

IC50 [1]: 103 nM | Inhibition Rate [1]: 134.70 ± 1.61%
Compound: CCN1CCN(Cc2ccc(-c3cc4c(N[C@H](C)c5ccccc5)ncnc4[nH]3)cc2)CC1 [Compound 2, AEE788]

Inhibition Rate [1]: 64.18 ± 1.16%
Compound: Denfivontinib [Compound 1]
